# Test results from PubChem BioAssay AID1963825 (Molecular Pharmacology Branch, DTP, NCI, 2024).
# Assay: Anticancer human tumor 997537-175-T-J1-PDC patient-derived colon adenocarcinoma cell line growth inhibition [POLQ]
# Details: 997537-175-T-J1-PDC complex spheroid viability, combination with POLQ inhibitors; for IC50: curve of first compound; for viability, T/C: stronger effect = lower value
# Method in brief: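 Complex spheroid viability model combining PDC tumour cells with endothelial (HUVEC) and MSC stromal cells. Novobiocin, ART-558 or RP6685 were tested singly and in combination with standard and investigational anticancer drugs. Each was titrated in half-log steps from near clinical Cmax, or from 10 microM where Cmax was unknown.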
# [1] = second compound 0.0316 µM, first compound 0.0316 µM
# [2] = second compound 0.0316 µM, first compound 0.1 µM
# [3] = second compound 0.0316 µM, first compound 0.316 µM
# [4] = second compound 0.0316 µM, first compound 1 µM
# [5] = second compound 0.1 µM, first compound 0.0316 µM
# [6] = second compound 0.1 µM, first compound 0.1 µM
# [7] = second compound 0.1 µM, first compound 0.316 µM
# [8] = second compound 0.1 µM, first compound 1 µM
# [9] = second compound 0.316 µM, first compound 0.0316 µM
# [10] = second compound 0.316 µM, first compound 0.1 µM
# [11] = second compound 0.316 µM, first compound 0.316 µM
# [12] = second compound 0.316 µM, first compound 1 µM
# [13] = second compound 1 µM, first compound 0.0316 µM
# [14] = second compound 1 µM, first compound 0.1 µM
# [15] = second compound 1 µM, first compound 0.316 µM
# [16] = second compound 1 µM, first compound 1 µM
# [17] = second compound 3.16 µM, first compound 0.0316 µM
# [18] = second compound 3.16 µM, first compound 0.1 µM
# [19] = second compound 3.16 µM, first compound 0.316 µM
# [20] = second compound 3.16 µM, first compound 1 µM
# [21] = second compound 10 µM, first compound 0.0316 µM
# [22] = second compound 10 µM, first compound 0.1 µM
# [23] = second compound 10 µM, first compound 0.316 µM
# [24] = second compound 10 µM, first compound 1 µM
# 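Also: luminescence signal used as a surrogate for viable cells; spheroids exposed to drugs for seven days before readout.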
smiles,measurement,setting,value
CC1COCCN1c1cc(C2(O)CC3CCC(C2)O3)c2cnn(-c3ccn[nH]3)c2n1 (centres undefined) + Cc1cccc(N(C)C(=O)C2C(O)CCN2c2nc(C)cc(C(F)(F)F)c2C#N)c1,IC50,second compound 0.0316 µM,> 10000 nM
same,IC50,second compound 0.1 µM,3160 nM
same,IC50,second compound 0.316 µM,936 nM
same,IC50,second compound 1 µM,> 10000 nM
same,IC50,second compound 3.16 µM,> 10000 nM
same,IC50,second compound 10 µM,3990 nM
same,"viability, T/C",[1],79.8%
same,"viability, T/C",[2],96%
same,"viability, T/C",[3],60%
same,"viability, T/C",[4],52.8%
same,"viability, T/C","second compound 0.0316 µM, first compound 3.16 µM",58.3%
same,"viability, T/C","second compound 0.0316 µM, first compound 10 µM",39%
same,"viability, T/C",[5],94.8%
same,"viability, T/C",[6],94.2%
same,"viability, T/C",[7],48.6%
same,"viability, T/C",[8],42.4%
same,"viability, T/C","second compound 0.1 µM, first compound 3.16 µM",66.4%
same,"viability, T/C","second compound 0.1 µM, first compound 10 µM",53.9%
same,"viability, T/C",[9],76.5%
same,"viability, T/C",[10],66.8%
same,"viability, T/C",[11],54.8%
same,"viability, T/C",[12],45.9%
same,"viability, T/C","second compound 0.316 µM, first compound 3.16 µM",53.8%
same,"viability, T/C","second compound 0.316 µM, first compound 10 µM",47.6%
same,"viability, T/C",[13],86.8%
same,"viability, T/C",[14],81.9%
same,"viability, T/C",[15],43.2%
same,"viability, T/C",[16],57.3%
same,"viability, T/C","second compound 1 µM, first compound 3.16 µM",81.9%
same,"viability, T/C","second compound 1 µM, first compound 10 µM",64.7%
same,"viability, T/C",[17],84.3%
same,"viability, T/C",[18],59.9%
same,"viability, T/C",[19],62.8%
same,"viability, T/C",[20],54.1%
same,"viability, T/C","second compound 3.16 µM, first compound 3.16 µM",54.5%
same,"viability, T/C","second compound 3.16 µM, first compound 10 µM",75.8%
same,"viability, T/C",[21],92.3%
same,"viability, T/C",[22],69%
same,"viability, T/C",[23],61.4%
same,"viability, T/C",[24],47.4%
same,"viability, T/C","second compound 10 µM, first compound 3.16 µM",58.1%
same,"viability, T/C","second compound 10 µM, first compound 10 µM",44.8%
C=CCn1c(=O)c2cnc(Nc3ccc(N4CCN(C)CC4)cc3)nc2n1-c1cccc(C(C)(C)O)n1 + Cc1cccc(N(C)C(=O)C2C(O)CCN2c2nc(C)cc(C(F)(F)F)c2C#N)c1,IC50,second compound 0.0316 µM,> 1000 nM
same,IC50,second compound 0.1 µM,> 1000 nM
same,IC50,second compound 0.316 µM,> 1000 nM
same,IC50,second compound 1 µM,> 1000 nM
same,IC50,second compound 3.16 µM,> 1000 nM
same,IC50,second compound 10 µM,> 1000 nM
same,"viability, T/C","second compound 0.0316 µM, first compound 0.00316 µM",101%
same,"viability, T/C","second compound 0.0316 µM, first compound 0.01 µM",100%
same,"viability, T/C",[1],93.9%
same,"viability, T/C",[2],90.9%
same,"viability, T/C",[3],100%
same,"viability, T/C",[4],76.2%
same,"viability, T/C","second compound 0.1 µM, first compound 0.00316 µM",99.4%
same,"viability, T/C","second compound 0.1 µM, first compound 0.01 µM",109%
same,"viability, T/C",[5],95%
same,"viability, T/C",[6],88.8%
same,"viability, T/C",[7],81.2%
same,"viability, T/C",[8],64.2%
same,"viability, T/C","second compound 0.316 µM, first compound 0.00316 µM",89.4%
same,"viability, T/C","second compound 0.316 µM, first compound 0.01 µM",113%
same,"viability, T/C",[9],110%
same,"viability, T/C",[10],91.9%
same,"viability, T/C",[11],83.2%
same,"viability, T/C",[12],75%
same,"viability, T/C","second compound 1 µM, first compound 0.00316 µM",118%
same,"viability, T/C","second compound 1 µM, first compound 0.01 µM",109%
same,"viability, T/C",[13],106%
same,"viability, T/C",[14],99.8%
same,"viability, T/C",[15],113%
same,"viability, T/C",[16],84.9%
same,"viability, T/C","second compound 3.16 µM, first compound 0.00316 µM",93.2%
same,"viability, T/C","second compound 3.16 µM, first compound 0.01 µM",95.6%
same,"viability, T/C",[17],101%
same,"viability, T/C",[18],96.1%
same,"viability, T/C",[19],85.4%
same,"viability, T/C",[20],59.6%
same,"viability, T/C","second compound 10 µM, first compound 0.00316 µM",111%
same,"viability, T/C","second compound 10 µM, first compound 0.01 µM",99.5%
same,"viability, T/C",[21],95.3%
same,"viability, T/C",[22],93.6%
same,"viability, T/C",[23],78.9%
same,"viability, T/C",[24],94.8%
